Assay results from ChEMBL document CHEMBL4665796 (2020).
The source made the active and inactive calls. No cut-off for these calls is given here.

Legend:
[1] = target: Sodium channel protein type 5 subunit alpha (Homo sapiens, UniProt Q14524); test: Inhibition of NaV1.5 (unknown origin) at 5 uM
Bacillus subtilis = test: Antimicrobial activity against Bacillus subtilis at 1.5 ug after 18 hrs by paper disk-agar diffusion assay; type: functional, organism-based; details: dose 1.5 µg
Pseudomonas putida = test: Antimicrobial activity against Pseudomonas putida at 1.5 ug after 18 hrs by paper disk-agar diffusion assay; type: functional, organism-based; details: dose 1.5 µg
Candida = test: Antimicrobial activity against Candida sp. at 1.5 ug after 18 hrs by paper disk-agar diffusion assay; type: functional, organism-based; details: dose 1.5 µg

Chain of Sodium channel protein type 5 subunit alpha (Q14524 whole entry, the tested form may be a part): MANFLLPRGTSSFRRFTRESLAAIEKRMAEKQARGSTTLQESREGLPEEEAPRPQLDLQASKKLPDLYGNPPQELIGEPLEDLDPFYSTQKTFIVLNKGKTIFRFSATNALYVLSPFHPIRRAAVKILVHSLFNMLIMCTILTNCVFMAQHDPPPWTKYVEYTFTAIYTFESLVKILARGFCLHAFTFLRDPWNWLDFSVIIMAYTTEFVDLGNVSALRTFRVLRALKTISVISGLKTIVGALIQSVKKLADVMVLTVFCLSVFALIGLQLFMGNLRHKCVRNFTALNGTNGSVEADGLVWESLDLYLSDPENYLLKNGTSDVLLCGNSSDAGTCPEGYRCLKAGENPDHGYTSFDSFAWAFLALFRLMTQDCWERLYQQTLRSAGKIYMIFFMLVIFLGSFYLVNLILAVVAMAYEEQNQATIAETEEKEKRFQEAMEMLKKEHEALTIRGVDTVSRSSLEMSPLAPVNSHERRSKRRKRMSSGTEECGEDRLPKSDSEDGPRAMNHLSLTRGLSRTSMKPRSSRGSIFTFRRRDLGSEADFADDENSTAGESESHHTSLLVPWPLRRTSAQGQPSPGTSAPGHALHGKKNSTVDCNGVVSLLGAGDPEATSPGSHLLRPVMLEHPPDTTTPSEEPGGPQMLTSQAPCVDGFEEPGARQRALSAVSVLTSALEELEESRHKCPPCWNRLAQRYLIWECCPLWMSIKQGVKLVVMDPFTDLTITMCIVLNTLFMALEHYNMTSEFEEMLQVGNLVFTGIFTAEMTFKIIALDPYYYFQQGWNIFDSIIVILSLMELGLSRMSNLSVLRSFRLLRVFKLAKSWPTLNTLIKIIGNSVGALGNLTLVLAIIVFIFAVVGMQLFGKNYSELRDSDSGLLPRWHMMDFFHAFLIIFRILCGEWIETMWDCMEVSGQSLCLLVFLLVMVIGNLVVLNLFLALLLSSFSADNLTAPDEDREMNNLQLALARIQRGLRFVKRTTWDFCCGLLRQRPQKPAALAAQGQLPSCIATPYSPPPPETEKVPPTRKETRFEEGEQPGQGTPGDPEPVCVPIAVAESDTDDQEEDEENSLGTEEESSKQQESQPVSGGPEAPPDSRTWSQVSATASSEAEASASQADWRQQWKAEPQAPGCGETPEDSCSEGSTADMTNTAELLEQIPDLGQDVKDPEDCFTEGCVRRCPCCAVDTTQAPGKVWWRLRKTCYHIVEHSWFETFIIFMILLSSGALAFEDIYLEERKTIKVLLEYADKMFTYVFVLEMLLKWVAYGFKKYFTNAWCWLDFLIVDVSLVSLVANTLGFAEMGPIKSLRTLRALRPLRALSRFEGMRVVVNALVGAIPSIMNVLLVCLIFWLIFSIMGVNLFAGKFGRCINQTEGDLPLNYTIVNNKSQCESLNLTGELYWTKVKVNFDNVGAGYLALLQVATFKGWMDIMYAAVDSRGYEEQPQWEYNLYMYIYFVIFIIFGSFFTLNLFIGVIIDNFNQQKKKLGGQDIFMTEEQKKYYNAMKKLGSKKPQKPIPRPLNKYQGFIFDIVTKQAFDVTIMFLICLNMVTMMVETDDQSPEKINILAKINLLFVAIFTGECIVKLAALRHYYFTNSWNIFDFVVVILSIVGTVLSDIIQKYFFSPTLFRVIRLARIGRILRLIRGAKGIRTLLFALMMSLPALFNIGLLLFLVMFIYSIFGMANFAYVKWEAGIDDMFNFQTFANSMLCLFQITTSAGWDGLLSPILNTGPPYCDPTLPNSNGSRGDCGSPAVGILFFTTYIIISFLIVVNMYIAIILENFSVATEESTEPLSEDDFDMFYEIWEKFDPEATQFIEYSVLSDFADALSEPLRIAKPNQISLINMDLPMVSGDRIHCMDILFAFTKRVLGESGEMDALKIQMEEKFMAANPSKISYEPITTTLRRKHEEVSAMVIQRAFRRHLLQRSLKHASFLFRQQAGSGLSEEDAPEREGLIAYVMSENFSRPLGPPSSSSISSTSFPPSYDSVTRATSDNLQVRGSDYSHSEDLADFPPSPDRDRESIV

SMILES | inhibition (INH) [1] | Activity (Bacillus subtilis) | Activity (Pseudomonas putida) | Activity (Candida)
C[C@]12NC(=N)NC[C@H]1C[C@]1(C)O[C@@]2(O)C[C@@H]1O | Not Active | – | – | –
C[C@]12NC(=N)NC[C@H]1C[C@]1(C)O[C@@]2(O)CC1=O | Not Active | – | – | –
C[C@]12NC(=N)NC=C1C[C@]1(C)O[C@@]2(O)C[C@@H]1O | Not Active | inactive | inactive | inactive
C[C@]1(O)C[C@@H]2CNC(=N)N[C@]2(C)C(=O)C[C@@H]1O | Not Active | – | – | –
C[C@@]12NC(=N)N[C@H]3O[C@H]4C[C@]1(O)O[C@@]4(C)C[C@H]32 | Not Active | – | – | –
C[C@]12NC(=N)NC=C1C[C@]1(C)O[C@@]2(O)CC1=O | Not Active | inactive | inactive | inactive
